For 39 compounds, IC50 and MTD results are on record in patent US11912663B2, “Multi-targeted tyrosine kinase inhibitors and their pharmaceutical uses” (Shanghai AB PharmaTech Ltd., priority 2021, dated 2024).

Structures are written as SMILES. Where only a bound is given, the exact number is not on record here.

The test system of data set [1] is pancreatic cancer cell line (BXPC3). Nature of the data set: tumor cell proliferation inhibition (CTG), pancreatic cancer cell line. It counts as cell-based. As to conditions: Homo sapiens, BXPC-3, 72 hours.
Data set [2] in a line: MTD toxicity test in rats. It counts as in vivo. As to conditions: rat, in vivo.
Another data set has as its target hERG potassium channels (Homo sapiens (Human), UniProt Q12809). Nature of the data set: in vitro inhibitory effect of hERG, whole-cell patch clamp. It counts as cell-based. As to conditions: whole-cell recording, room temperature. On the technique in general: hERG is a cardiac potassium channel; its block is linked to QT prolongation.
Data set [3] has as its system kidney cancer cell line (Caki-1). Nature of the data set: tumor cell proliferation inhibition (CTG), kidney cancer cell line. It counts as cell-based. Conditions: Homo sapiens, 72 hours, read-out: Caki-1 (renal cancer) IC50.
Data set [4] deals with lung cancer cell line (A549). Description: tumor cell proliferation inhibition (CTG), lung cancer cell line. As to conditions: Homo sapiens, 72 hours. It counts as cell-based.
Data set [5] has as its system gastric cancer cell line (SNU16). Nature of the data set: tumor cell proliferation inhibition (CTG), gastric cancer cell line. It counts as cell-based. As to conditions: Homo sapiens, SNU-16, 72 hours, read-out: SUN16 IC50.
In data set [6] the test system is hepatocellular carcinoma cell line (Hep3B 2.1-7). Description: tumor cell proliferation inhibition (CTG), hepatocellular carcinoma cell line. As to conditions: Homo sapiens, 72 hours. It counts as cell-based.
Data set [7] has as its system cervical cancer cell lines (Hela). Description: tumor cell proliferation inhibition (CTG), cervical cancer cell line. It counts as cell-based. As to conditions: Homo sapiens, 72 hours.
The subject of another data set is prostatic cancer (PC-3). Description: tumor cell proliferation inhibition (CTG), PC-3. It counts as cell-based. As to conditions: 72 hours.
Data set [8] has as its system leukemia cell line (K562). Description: tumor cell proliferation inhibition (CTG), leukemia cell line. It counts as cell-based. Conditions: Homo sapiens, 72 hours.

hERG potassium channels, sequence (Q12809 whole entry): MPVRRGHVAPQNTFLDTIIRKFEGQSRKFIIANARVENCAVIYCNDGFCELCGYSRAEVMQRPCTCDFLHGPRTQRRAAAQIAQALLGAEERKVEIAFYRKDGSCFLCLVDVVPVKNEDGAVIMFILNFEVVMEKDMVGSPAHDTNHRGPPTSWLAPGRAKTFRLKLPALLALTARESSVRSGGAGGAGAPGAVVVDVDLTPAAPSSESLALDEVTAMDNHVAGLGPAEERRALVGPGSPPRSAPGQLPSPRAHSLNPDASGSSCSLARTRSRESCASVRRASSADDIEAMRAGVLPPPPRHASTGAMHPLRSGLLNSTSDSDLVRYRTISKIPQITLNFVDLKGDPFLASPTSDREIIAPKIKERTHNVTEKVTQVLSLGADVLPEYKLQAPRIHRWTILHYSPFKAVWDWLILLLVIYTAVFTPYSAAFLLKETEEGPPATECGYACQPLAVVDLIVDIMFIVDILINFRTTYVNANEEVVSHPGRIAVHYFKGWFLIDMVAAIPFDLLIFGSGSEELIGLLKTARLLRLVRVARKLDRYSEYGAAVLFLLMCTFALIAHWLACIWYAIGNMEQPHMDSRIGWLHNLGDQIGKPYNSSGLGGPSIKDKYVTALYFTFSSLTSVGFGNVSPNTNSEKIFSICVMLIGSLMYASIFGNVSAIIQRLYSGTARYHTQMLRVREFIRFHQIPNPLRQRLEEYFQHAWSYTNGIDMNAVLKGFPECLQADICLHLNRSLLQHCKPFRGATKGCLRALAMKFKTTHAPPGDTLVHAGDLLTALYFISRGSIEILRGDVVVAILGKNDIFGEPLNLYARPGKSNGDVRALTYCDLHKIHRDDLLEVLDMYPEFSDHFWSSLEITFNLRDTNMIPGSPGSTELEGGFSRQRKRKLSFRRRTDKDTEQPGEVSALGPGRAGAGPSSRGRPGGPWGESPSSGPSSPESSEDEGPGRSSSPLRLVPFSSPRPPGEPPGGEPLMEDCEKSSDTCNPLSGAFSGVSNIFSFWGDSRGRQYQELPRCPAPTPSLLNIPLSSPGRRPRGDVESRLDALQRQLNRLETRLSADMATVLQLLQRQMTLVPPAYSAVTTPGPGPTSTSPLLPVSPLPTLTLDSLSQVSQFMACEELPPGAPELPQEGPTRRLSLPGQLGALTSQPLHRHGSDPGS

The IC50 is the point on the concentration scale where inhibition reaches its midpoint. `CNC(=O)c1cc2c(Oc3c(F)cc(NC(=O)NC4CC4)c(Cl)c3F)ccnc2cc1OC` [IIIb-01]: the IC50 in [1] is greater than 10 µM; against hERG potassium channels it was greater than 30 µM; in data set [3], greater than 5 µM; in [4], greater than 5 µM. The MTD at 14 days in data set [2] (150 mg/kg, in rats, read-out: MTD toxicity dose) was greater than 150 mg/kg. This compound registered an MTD in data set [2] (toxicity study for MTD, species not stated) of 300 mg/kg.

Regarding `CNC(=O)c1cc2c(Oc3c(F)cc(NC(=O)NC4CC4)c(F)c3F)ccnc2cc1OC` [IIIb-02], the IC50 was greater than 10 µM in data set [1], greater than 5 µM in data set [3] and greater than 5 µM in [4].

As to `COc1cc2nccc(Oc3c(F)cc(NC(=O)NC4CC4)c(Cl)c3F)c2cc1C(=O)N(C)C` [IIIb-03], the IC50 was greater than 10 µM in data set [1], greater than 5 µM in data set [3] and greater than 5 µM in data set [4].

Consider `COc1cc2nccc(Oc3c(F)cc(NC(=O)NC4CC4)c(Cl)c3F)c2cc1C(=O)NC(C)C` [IIIb-04], for which the IC50 in data set [1] was greater than 10 µM; in data set [3] it was greater than 5 µM; in data set [4], greater than 5 µM.

Consider `COCCNC(=O)c1cc2c(Oc3c(F)cc(NC(=O)NC4CC4)c(Cl)c3F)ccnc2cc1OC` [IIIb-05], for which the results for the IC50 in data set [1], in [3] and in [4] were greater than 10 µM, greater than 5 µM and greater than 5 µM, respectively.

Turning to `COc1cc2nccc(Oc3c(F)cc(NC(=O)NC4CC4)c(Cl)c3F)c2cc1C(=O)NCCF` [IIIb-06], the half-inhibitory concentration (IC50) in [1] is greater than 10 µM; in [5], greater than 10 µM; in [6] it was 2.5 to 5 µM; in data set [7], less than 5 µM; in the data set with prostatic cancer (PC-3), greater than 10 µM; at hERG potassium channels, 18.7 µM. Moreover, the figures for the IC50 in data set [3], in data set [4] and in [8] were 2.5 to 5 µM, 2.5 to 5 µM and 5 to 10 µM, respectively.

Take `COc1cc2nccc(Oc3c(F)cc(NC(=O)NC4CC4)c(F)c3F)c2cc1C(=O)NCC(F)F` [IIIb-07]: the figures for the 50% inhibitory concentration (IC50) in [1], in [3] and in [4] were greater than 10 µM, greater than 5 µM and greater than 5 µM, respectively.

Take `COc1cc2nccc(Oc3c(F)cc(NC(=O)NC4CC4)c(Cl)c3F)c2cc1C(=O)NCCN(C)C` [IIIb-10]: the IC50 in data set [1] is greater than 10 µM; in [3], greater than 5 µM; in data set [4], greater than 5 µM.

`COc1cc2nccc(Oc3c(F)cc(NC(=O)NC4CC4)c(F)c3F)c2cc1C(=O)NC1CC1` [IIIb-11]: the IC50 in data set [1] was less than 5 µM; in data set [3] it was less than 2.5 µM; in [4], less than 2.5 µM.

Consider `COc1cc2nccc(Oc3c(F)cc(NC(=O)NC4CC4)c(Cl)c3F)c2cc1C(=O)NC1CC1` [IIIb-12], for which the IC50 in data set [1] was greater than 10 µM; in data set [3], greater than 5 µM; in data set [4] it was greater than 5 µM.

With `COc1cc2nccc(Oc3c(F)cc(NC(=O)NC4CC4)c(Cl)c3F)c2cc1C(=O)N(C1CC1)C1CC1` [IIIb-13], the IC50 was greater than 10 µM in data set [1], greater than 5 µM in data set [3] and greater than 5 µM in [4].

Consider `COc1cc2nccc(Oc3c(F)cc(NC(=O)NC4CC4)c(Cl)c3F)c2cc1C(=O)N1CCC1` [IIIb-14], for which the IC50 is greater than 10 µM in [1], greater than 5 µM in [3] and greater than 5 µM in data set [4].

For the compound `COc1cc2nccc(Oc3c(F)cc(NC(=O)NC4CC4)c(F)c3F)c2cc1C(=O)NCCO` [IIIb-15], the IC50 in [1] was greater than 10 µM; in data set [3], greater than 5 µM; in data set [4] it was greater than 5 µM.

`COc1cc2nccc(Oc3c(F)cc(NC(=O)NC4CC4)c(Cl)c3F)c2cc1C(=O)N[C@H](C)CO` [IIIb-17]: the IC50 in [1] is greater than 10 µM; in [3] it was greater than 5 µM; in data set [4] it was greater than 5 µM.

For `COc1cc2nccc(Oc3c(F)cc(NC(=O)NC4CC4)c(Cl)c3F)c2cc1C(=O)N[C@@H](C)CO` [IIIb-18], the IC50 in data set [1] was greater than 10 µM; in [3], greater than 5 µM; in data set [4] it was greater than 5 µM.

For the compound `COc1cc2nccc(Oc3c(F)cc(NC(=O)NC4CC4)c(Cl)c3F)c2cc1C(=O)NC(C)(C)CO` [IIIb-19], the values for the IC50 in data set [1], in [3] and in data set [4] were greater than 10 µM, greater than 5 µM and greater than 5 µM, respectively.

On to `COc1cc2nccc(Oc3c(F)cc(NC(=O)NC4CC4)c(Cl)c3F)c2cc1C(=O)NC(CO)CO` [IIIb-20], for which the half-inhibitory concentration (IC50) is greater than 10 µM in [1], greater than 5 µM in data set [3] and greater than 5 µM in data set [4].

As for `COc1cc2nccc(Oc3c(F)cc(NC(=O)NC4CC4)c(Cl)c3F)c2cc1C(=O)NC[C@H](O)CO` [IIIb-22], the IC50 in data set [1] is greater than 10 µM; in data set [3] it was 2.5 to 5 µM; in data set [4], 2.5 to 5 µM.

On to `COc1cc2nccc(Oc3c(F)cc(NC(=O)NC4CC4)c(Cl)c3F)c2cc1C(=O)NC1(CO)CC1` [IIIb-23], for which the results for the half-inhibitory concentration (IC50) in [1], in data set [3] and in data set [4] were greater than 10 µM, greater than 5 µM and greater than 5 µM, respectively.

As to `COc1cc2nccc(Oc3c(F)cc(NC(=O)NC4CC4)c(Cl)c3F)c2cc1C(=O)N1CC(O)C1` [IIIb-24], the IC50 in [1] was greater than 10 µM; in data set [3], greater than 5 µM; in data set [4], greater than 5 µM.

For the compound `COc1cc2nccc(Oc3c(F)cc(NC(=O)NC4CC4)c(Cl)c3F)c2cc1C(=O)N1CC[C@@H](O)C1` [IIIb-25], the IC50 is greater than 10 µM in data set [1], greater than 5 µM in data set [3] and greater than 5 µM in data set [4].

Take `COc1cc2nccc(Oc3c(F)cc(NC(=O)NC4CC4)c(Cl)c3F)c2cc1C(=O)N1CC[C@H](O)C1` [IIIb-26]: the IC50 in data set [1] is less than 5 µM; in data set [3], less than 2.5 µM; in data set [4] it was less than 2.5 µM.

Regarding `COc1cc2nccc(Oc3c(F)cc(NC(=O)NC4CC4)c(Cl)c3F)c2cc1C(=O)N1CCN(C)CC1` [IIIb-27], the results for the IC50 in data set [1], in data set [3] and in data set [4] were greater than 10 µM, greater than 5 µM and greater than 5 µM, respectively.

Turning to `COc1cc2nccc(Oc3c(F)cc(NC(=O)NC4CC4)c(Cl)c3F)c2cc1C(=O)NC1CCN(C)CC1` [IIIb-28], the IC50 in data set [1] is greater than 10 µM; in [3], greater than 5 µM; in data set [4] it was greater than 5 µM.

`COc1cc2nccc(Oc3c(F)cc(NC(=O)NC4CC4)c(Cl)c3F)c2cc1C#N` [IIIb-29]: the IC50 is greater than 10 µM in [1], greater than 5 µM in [3] and greater than 5 µM in data set [4].

In the case of `COc1cc2nccc(Oc3c(F)cc(NC(=O)NC4CC4)c(Cl)c3OC)c2cc1C#N` [IIIb-30], the IC50 in data set [1] was greater than 10 µM; in [3], greater than 5 µM; in data set [4], greater than 5 µM.

As for `COc1cc2nccc(Oc3c(F)cc(NC(=O)NC4CC4)c(Cl)c3F)c2cc1C(=O)NC1(C(F)(F)F)CC1` [IIIb-41], the IC50 in data set [1] is greater than 10 µM; in data set [3] it was greater than 5 µM; in data set [4] it was greater than 5 µM.

On to `COc1cc2nccc(Oc3c(F)cc(NC(=O)NC4CC4)c(Cl)c3F)c2cc1C(=O)NC(CO)C(F)(F)F` (stereo not shown) [IIIb-42], for which the IC50 in [1] was greater than 10 µM; in [3], greater than 5 µM; in data set [4], greater than 5 µM.

As for `COc1cc2nccc(Oc3c(F)cc(NC(=O)NC4CC4)c(Cl)c3F)c2cc1C(=O)NC(C)C#N` (stereo not shown) [IIIb-46], the results for the IC50 in data set [1], in [3] and in data set [4] were greater than 10 µM, greater than 5 µM and greater than 5 µM, respectively.

For `COc1cc2nccc(Oc3c(F)cc(NC(=O)NC4CC4)c(Cl)c3F)c2cc1C(=O)NC(C)(C)C#N` [IIIb-47], the IC50 in [1] was greater than 10 µM; in [3], greater than 5 µM; in [4], greater than 5 µM.

On to `COc1cc2nccc(Oc3c(F)cc(NC(=O)NC4CC4)c(Cl)c3F)c2cc1C(=O)NC1(C#N)CC1` [IIIb-48], for which the IC50 in [1] was greater than 10 µM; in data set [3] it was greater than 5 µM; in data set [4] it was greater than 5 µM.

Regarding `COc1cc2nccc(Oc3c(F)cc(NC(=O)NC4CC4)c(Cl)c3F)c2cc1C(=O)NCC1(C#N)CC1` [IIIb-49], the values for the 50% inhibitory concentration (IC50) in data set [1], in data set [3] and in data set [4] were greater than 10 µM, greater than 5 µM and greater than 5 µM, respectively.

On to `COc1cc2nccc(Oc3c(F)cc(NC(=O)NC4CC4)c(Cl)c3F)c2cc1C(=O)NCCN` [IIIb-51], for which the values for the IC50 in [1], in [3] and in data set [4] were greater than 10 µM, greater than 5 µM and greater than 5 µM, respectively.

For the compound `COc1cc2nccc(Oc3c(F)cc(NC(=O)NC4CC4)c(Cl)c3F)c2cc1C(=O)Nc1cn[nH]c1` [IIIb-52], the IC50 in data set [1] is greater than 10 µM; in data set [3], greater than 5 µM; in data set [4] it was greater than 5 µM.

As for `COc1cc2nccc(Oc3c(F)cc(NC(=O)NC4CC4)c(Cl)c3F)c2cc1C(=O)Nc1cnn(C)c1` [IIIb-53], the IC50 was greater than 10 µM in data set [1], greater than 5 µM in data set [3] and greater than 5 µM in [4].

Consider `COc1cc2nccc(Oc3c(F)cc(NC(=O)NC4CC4)c(Cl)c3F)c2cc1C(=O)Nc1cncn1C` [IIIb-54], for which the IC50 in [1] was greater than 10 µM; in data set [3] it was greater than 5 µM; in data set [4], greater than 5 µM.

As for `CN(C)CCOc1cc2nccc(Oc3c(F)cc(NC(=O)NC4CC4)c(Cl)c3F)c2cc1C(N)=O` [IIIb-59], the IC50 was greater than 10 µM in [1], greater than 5 µM in [3] and greater than 5 µM in data set [4].

As for `CNC(=O)c1cc(Oc2ccc(NC(=O)Nc3ccc(Cl)c(C(F)(F)F)c3)c(F)c2)ccn1` [Regorafenib, regorafenib, reference compound], the IC50 in [1] was greater than 10 µM; in data set [5] it was 5 to 10 µM; in [6] it was greater than 5 µM; in data set [7], greater than 10 µM; in the data set on prostatic cancer (PC-3), greater than 10 µM; against hERG potassium channels, 27 µM. In addition, the IC50 was greater than 5 µM in data set [3], greater than 5 µM in data set [4] and greater than 10 µM in data set [8].

For `CNC(=O)c1cc(Oc2ccc(NC(=O)Nc3ccc(Cl)c(C(F)(F)F)c3)cc2)ccn1` [Sorafenib, sorafenib, reference compound], the IC50 against hERG potassium channels is greater than 10 µM.
